In patent US12421193B2, “GPR52 modulators and methods of use” (Neurocrine Biosciences, Inc., priority 2020, dated 2025) one finds EC50 data, which are given here for 41 molecules.

Where a name gives a salt, the structure may show the parent alone.

This test deals with T1, recombinant human GPR52 (Homo sapiens, UniProt Q9Y2T5).
T1 construct: expressed in transfected cells
T1 sequence (Q9Y2T5 whole entry): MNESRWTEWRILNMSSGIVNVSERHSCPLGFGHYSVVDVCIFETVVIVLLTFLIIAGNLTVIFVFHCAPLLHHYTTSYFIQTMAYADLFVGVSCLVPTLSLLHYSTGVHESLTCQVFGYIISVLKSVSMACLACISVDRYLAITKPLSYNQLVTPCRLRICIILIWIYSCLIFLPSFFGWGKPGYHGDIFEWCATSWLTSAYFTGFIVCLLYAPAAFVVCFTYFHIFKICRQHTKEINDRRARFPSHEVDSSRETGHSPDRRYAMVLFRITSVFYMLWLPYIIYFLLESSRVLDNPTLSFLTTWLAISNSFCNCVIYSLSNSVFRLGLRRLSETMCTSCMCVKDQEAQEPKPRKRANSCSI
Briefly: TR-FRET cAMP assay (LANCE Ultra cAMP Kit), GPR52 activity. The class given is cell-based. Conditions: Flp-In-CHO cells stably expressing recombinant human GPR52; cAMP production, normalized to the positive control. Here is the method: TR-FRET cAMP assays were performed using commercially available assay kits (LANCE™ Ultra cAMP Kit). Controls and compounds were solubilized in DMSO using ½ log dilution to generate duplicate 10-point dose response curves in 384-well polypropylene compound plates. Sixty nanoliters of the diluted compounds were transferred into 384-well NBS assay plates and further diluted to 1× with the addition of 2000 cells per well. Flp-In™—CHO cells that stably express recombinant human GPR52.
Cells were harvested with cell stripper and resuspended in Stimulation Buffer (5 mM HEPES, 0.1% bovine serum albumin (BSA), 0.5 mM IBMX, pH 7.4). After thirty minutes incubation at room temperature, detection reagents were added to each well. Plates were then incubated for 30 minutes at room temperature. The LANCE™ Ultra cAMP assay uses time-resolved fluorescence resonance energy transfer (TR-FRET) to detect cAMVP production; this signal was quantified using a Pherastar multi-mode plate reader.
Dose-response curves were generated from the fluorescence counts normalized to the positive control. E EC50 values were obtained using a nonlinear regression curve-fitting program.
Background: In TR-FRET formats the signal depends on donor and acceptor labels being close together.
`Cc1cc(-c2cc(COc3cccc(CCO)c3)ccn2)ccc1C(N)=O` [Example 16, 4-{4-[3-(2-hydroxyethyl)phenoxymethyl]pyridin-2-yl}-2-methylbenzamide]: the concentration giving a half-maximal response (EC50) lay in the range of 101 to 1000 nM. For `Cc1cc(-c2cc(COc3cc(C(F)(F)F)nn3C)ccn2)ccc1C(N)=O` [Example 66, 4-[4-({[1-methyl-3-(trifluoromethyl)-1H-pyrazol-5-yl]oxy}methyl)pyridin-2-yl]2-methylbenzamide] the value was 25 to 100 nM; for `COc1ccc(OCc2ccnc(-c3ccc(C(N)=O)c(C)c3)c2)cc1OC` [Example 17, 4-[4-(3,4-dimethoxyphenoxymethyl)pyridin-2-yl]-2-methylbenzamide], 101 to 1000 nM; for `Cc1cc(-c2cncc(COc3ccc(C(F)(F)F)cc3)c2)ccc1C(N)=O` [Example 90, 4-{5-[4-(trifluoromethyl)phenoxymethyl]pyridin-3-yl}-2-methylbenzamide], 25 to 100 nM. Regarding `CCc1ccccc1OCc1ccnc(-c2ccc(C(N)=O)c(C)c2)c1` [Example 32, 4-[4-(2-ethylphenoxymethyl)pyridin-2-yl]-2-methylbenzamide], the EC50 lay within 101 to 1000 nM. Consider `Cc1cc(-c2cc(COc3ccc(C(F)(F)F)c(F)c3)ccn2)ccc1C(N)=O` [Example 65, 4-{4-[3-fluoro-4-(trifluoromethyl)phenoxymethyl]pyridin-2-yl}-2-methylbenzamide], for which the EC50 is below 25 nM. Take `Cc1cc(-c2cc(COc3ccc(F)cc3)ccn2)ccc1C(N)=O` [Example 12, 4-[4-(4-fluorophenoxymethyl)pyridin-2-yl]-2-methylbenzamide]: the EC50 is 25 to 100 nM.

Consider `Cc1cc(-c2cc(COc3cccc4c3CCC4=O)ccn2)ccc1C(N)=O` [Example 31, 4-(4-{[(1-oxo-2,3-dihydro-1H-inden-4-yl)oxy]methyl}pyridin-2-yl)-2-methylbenzamide], for which the concentration giving a half-maximal response (EC50) was 101 to 1000 nM.

`Cc1cc(-c2cc(COc3ccc(F)cc3Cl)ccn2)ccc1C(N)=O` [Example 45, 4-[4-(2-chloro-4-fluorophenoxymethyl)pyridin-2-yl]-2-methylbenzamide]: the EC50 was in the range of 101 to 1000 nM. Take `Cc1cc(-c2cc(COc3ccc(S(C)(=O)=O)cc3)ccn2)ccc1C(N)=O` [Example 6, 4-[4-(4-methanesulfonylphenoxymethyl)pyridin-2-yl]-2-methylbenzamide]: the EC50 is 101 to 1000 nM.

As for `Cc1cc(-c2cc(COc3ccc(Cl)c(F)c3)ccn2)ccc1C(N)=O` [Example 34, 4-[4-(4-chloro-3-fluorophenoxymethyl)pyridin-2-yl]-2-methylbenzamide], the EC50 lay in the range of 101 to 1000 nM. Regarding `Cc1cc(-c2cc(COc3ccc4c(c3)OCC4)ccn2)ccc1C(N)=O` [Example 63, 4-{4-[(2,3-dihydro-1-benzofuran-6-yloxy)methyl]pyridin-2-yl}-2-methylbenzamide], the EC50 was 101 to 1000 nM. For `COc1cc(OCc2cncc(-c3ccc(C(N)=O)c(C)c3)c2)ccc1C#N` [Example 94, 4-[5-(4-cyano-3-methoxyphenoxymethyl)pyridin-3-yl]-2-methylbenzamide] the value was 101 to 1000 nM. For `Cc1cc(-c2cc(COc3ccc(F)c(Cl)c3)ccn2)ccc1C(N)=O` [Example 47, 4-[4-(3-chloro-4-fluorophenoxymethyl)pyridin-2-yl]-2-methylbenzamide], the concentration giving a half-maximal response (EC50) was below 25 nM. `Cc1cc(-c2ccnc(COc3cc(F)cc(F)c3)c2)ccc1C(N)=O` [Example 85, 4-[2-(3,5-difluorophenoxymethyl)pyridin-4-yl]-2-methylbenzamide]: the EC50 was 101 to 1000 nM. For `CSc1ccccc1OCc1ccnc(-c2ccc(C(N)=O)c(C)c2)c1` [Example 53, 4-{4-[2-(methylsulfanyl)phenoxymethyl]pyridin-2-yl}-2-methyl benzamide] the value was 25 to 100 nM; for `COc1cc(Cl)cc(OCc2ccnc(-c3ccc(C(N)=O)c(C)c3)c2)c1` [Example 24, 4-[4-(3-chloro-5-methoxyphenoxymethyl)pyridin-2-yl]-2-methylbenzamide], 25 to 100 nM; for `Cc1cc(-c2cncc(COc3ccc(C#N)c(F)c3)c2)ccc1C(N)=O` [Example 91, 4-[5-(4-cyano-3-fluorophenoxymethyl)pyridin-3-yl]-2-methylbenzamide], above 1000 nM.

Take `Cc1ccc(OCc2ccnc(-c3ccc(C(N)=O)c(C)c3)c2)cc1F` [Example 8, 4-[4-(3-fluoro-4-methylphenoxymethyl)pyridin-2-yl]-2-methylbenzamide]: the concentration giving a half-maximal response (EC50) lay within 101 to 1000 nM. Consider `Cc1ccc(F)c(OCc2ccnc(-c3ccc(C(N)=O)c(C)c3)c2)c1` [Example 14, 4-[4-(2-fluoro-5-methylphenoxymethyl)pyridin-2-yl]-2-methylbenzamide], for which the concentration for a half-maximal effect (EC50) lay in the range of 101 to 1000 nM. As to `Cc1cc(-c2cc(COc3cccc(S(C)(=O)=O)c3)ccn2)ccc1C(N)=O` [Example 5, 4-[4-(3-methanesulfonylphenoxymethyl)pyridin-2-yl]-2-methylbenzamide], the concentration giving a half-maximal response (EC50) was in the range of 101 to 1000 nM. For `Cc1cc(-c2cncc(COc3cc(F)cc(F)c3)c2)ccc1C(N)=O` [Example 93, 4-[5-(3,5-difluorophenoxymethyl)pyridin-3-yl]-2-methylbenzamide], the EC50 lay in the range of 101 to 1000 nM. For `Cc1cc(-c2cc(COc3ccc(C#N)cc3)ccn2)ccc1C(N)=O` [Example 26, 4-[4-(4-cyanophenoxymethyl)pyridin-2-yl]-2-methylbenzamide] the value was 25 to 100 nM; for `Cc1ccc(OCc2ccnc(-c3ccc(C(N)=O)c(C)c3)c2)cc1` [Example 36, 4-[4-(4-methylphenoxymethyl)pyridin-2-yl]-2-methylbenzamide], 101 to 1000 nM. With `Cc1cc(-c2ccnc(COc3cc(F)c(F)c(F)c3)c2)ccc1C(N)=O` [Example 83, 4-[2-(3,4,5-trifluorophenoxymethyl)pyridin-4-yl]-2-methylbenzamide], the EC50 fell in the range of 101 to 1000 nM. With `COc1ccc2ccc(OCc3ccnc(-c4ccc(C(N)=O)c(C)c4)c3)cc2c1` [Example 21, 4-(4-{[(7-methoxynaphthalen-2-yl)oxy]methyl}pyridin-2-yl)-2-methylbenzamide], the EC50 was 25 to 100 nM. Regarding `Cc1cc(-c2cncc(COc3cc(F)c(F)c(F)c3)c2)ccc1C(N)=O` [Example 100, 4-[5-(3,4,5-trifluorophenoxymethyl)pyridin-3-yl]2-methylbenzamide], the EC50 was 101 to 1000 nM. For `Cc1cc(-c2cc(COC3CCCCC3)ccn2)ccc1C(N)=O` [Example 104, 4-{4-[(cyclohexyloxy)methyl]pyridin-2-yl}-2-methylbenzamide] the value was 101 to 1000 nM; for `Cc1cc(-c2cncc(COc3cc(F)cc(C#N)c3)c2)ccc1C(N)=O` [Example 92, 4-[5-(3-cyano-5-fluorophenoxymethyl)pyridin-3-yl]-2-methylbenzamide], above 1000 nM; for `Cc1ccccc1OCc1ccnc(-c2ccc(C(N)=O)c(C)c2)c1` [Example 46, 4-[4-(2-methylphenoxymethyl)pyridin-2-yl]-2-methylbenzamide], 101 to 1000 nM. As to `Cc1cc(-c2cc(COc3cccc(C(F)F)c3)ccn2)ccc1C(N)=O` [Example 67, 4-{4-[3-(difluoromethyl)phenoxymethyl]pyridin-2-yl}-2-methylbenzamide], the concentration for a half-maximal effect (EC50) was below 25 nM. As to `Cc1cc(-c2ccnc(COc3ccc(C(F)(F)F)cc3)c2)ccc1C(N)=O` [Example 81, 4-{2-[4-(trifluoromethyl)phenoxymethyl]pyridin-4-yl}-2-methylbenzamide hydrochloride], the 50% effective concentration (EC50) was below 25 nM. Regarding `CSc1ccc(OCc2ccnc(-c3ccc(C(N)=O)c(C)c3)c2)cc1` [Example 37, 4-{4-[4-(methylsulfanyl)phenoxymethyl]pyridin-2-yl}-2-methyl benzamide], the EC50 lay in the range of 25 to 100 nM. For `Cc1cc(-c2cc(COc3ccc(C(C)(C)O)cc3)ccn2)ccc1C(N)=O` [Example 69, 4-{4-[4-(2-hydroxypropan-2-yl)phenoxymethyl]pyridin-2-yl}-2-methylbenzamide] the value was 25 to 100 nM; for `COc1ccc(OCc2cncc(-c3ccc(C(N)=O)c(C)c3)c2)c(Cl)c1` [Example 99, 4-[5-(2-chloro-4-methoxyphenoxymethyl)pyridin-3-yl]-2-methylbenzamide], above 1000 nM; for `Cc1cc(-c2cc(COc3ccc([N+](=O)[O-])cc3)ccn2)ccc1C(N)=O` [Example 33, 4-[4-(4-nitrophenoxymethyl)pyridin-2-yl]-2-methylbenzamide], below 25 nM. In the case of `CCC(=O)c1ccc(OCc2ccnc(-c3ccc(C(N)=O)c(C)c3)c2)cc1` [Example 59, 4-[4-(4-propanoylphenoxymethyl)pyridin-2-yl]2-methylbenzamide], the half-maximal effective concentration (EC50) was in the range of 101 to 1000 nM. `NC(=O)c1ccc(-c2cc(COc3ccc(C(F)(F)F)cc3)ccn2)cc1Cl` [Example 76, 4-{4-[4-(trifluoromethyl)phenoxymethyl]pyridin-2-yl}2-chlorobenzamide]: the EC50 is below 25 nM. As to `Cc1cc(-c2cc(COc3ccc(C#N)c(F)c3)ccn2)ccc1C(=O)NCCN(C)C` [Example 80, 4-[4-(4-cyano-3-fluorophenoxymethyl)pyridin-2-yl]-N-[2-(dimethylamino)ethyl]-2-methylbenzamide], the EC50 is below 25 nM. Take `COc1cc(Cl)ccc1OCc1ccnc(-c2ccc(C(N)=O)c(C)c2)c1` [Example 51, 4-[4-(4-chloro-2-methoxyphenoxymethyl)pyridin-2-yl]-2-methylbenzamide]: the EC50 lay within 25 to 100 nM. Turning to `Cc1cc(-c2cc(COc3ccc(Cl)cc3)ccn2)ccc1C(N)=O` [Example 40, 4-[4-(4-chlorophenoxymethyl)pyridin-2-yl]-2-methylbenzamide], the EC50 was above 1000 nM.

The EC50 is the concentration that produces a half-maximal response.
